# Reference: ChEMBL document CHEMBL1201862, “PubChem BioAssay data set” (2004)
#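 Briefly, cells in 96-well plates were exposed to five compound concentrations for 48 h, and endpoints were estimated by linear interpolation. GI50 = concentration required for 50% inhibition of growth.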 Calls of active or inactive are those of the source. No stated cut-off is given here; in the data, active = GI50 up to about 1.1 µM and inactive = higher.
# Columns and labels:
# Assay in all cases: growth of human tumour cells (NCI), 48 h
# [1] = system: A498
# [2] = system: ACHN
# [3] = system: CAKI-1
# [4] = system: COLO 205
# [5] = system: DU-145
# [6] = system: HCC 2998
# [7] = system: HL-60
# [8] = system: M14
# [9] = system: MDA-MB-435
# [10] = system: NCI-H460
# [11] = system: NCI/ADR-RES
# [12] = system: OVCAR-3
# [13] = system: OVCAR-4
# [14] = system: OVCAR-5
# [15] = system: OVCAR-8
# [16] = system: PC-3
# [17] = system: RXF 393
# [18] = system: SF-268
# [19] = system: SNB-75
# [20] = system: SNB-19
Compound,GI50 [1],GI50 [2],GI50 [3],GI50 [4],GI50 [5],GI50 [6],GI50 [7],GI50 [8],GI50 [9],GI50 [10],GI50 [11],GI50 [12],GI50 [13],GI50 [14],GI50 [15],GI50 [16],GI50 [17],GI50 [18],GI50 [19],GI50 [20]
O=c1c2nc[nH]c2n(-c2ccccc2)c(=S)n1-c1ccccc1,> 100 µM (inactive),> 100 µM (inactive),> 100 µM (inactive),> 100 µM (inactive),> 100 µM (inactive),> 100 µM (inactive),> 100 µM (inactive),> 100 µM (inactive),> 100 µM (inactive),> 100 µM (inactive),> 100 µM (inactive),> 100 µM (inactive),> 100 µM (inactive),> 100 µM (inactive),> 100 µM (inactive),> 100 µM (inactive),> 100 µM (inactive),> 100 µM (inactive),> 100 µM (inactive),–
COCc1nc2c(OC)c(-c3nc4ccc(N5CCN(C)CC5)cc4[nH]3)cc(OC)c2[nH]1,> 100 µM (inactive),65.9 µM (inactive),41.7 µM (inactive),25.6 µM (inactive),31.3 µM (inactive),–,33.6 µM (inactive),17.4 µM (inactive),33 µM (inactive),36.7 µM (inactive),> 100 µM (inactive),29.7 µM (inactive),59.2 µM (inactive),> 100 µM (inactive),60.7 µM (inactive),42.9 µM (inactive),14.3 µM (inactive),> 100 µM (inactive),4.3 µM (inactive),48.8 µM (inactive)
CN(C)c1ccc(-c2ccc(N(C)C)c3n[se]nc23)c2n[se]nc12,> 100 µM (inactive),> 100 µM (inactive),> 100 µM (inactive),–,> 100 µM (inactive),> 100 µM (inactive),> 100 µM (inactive),–,> 100 µM (inactive),> 100 µM (inactive),> 100 µM (inactive),> 100 µM (inactive),> 100 µM (inactive),> 100 µM (inactive),> 100 µM (inactive),> 100 µM (inactive),> 100 µM (inactive),> 100 µM (inactive),> 100 µM (inactive),–
C=CCOc1cc(NC(=S)c2ccoc2C)ccc1OC,> 100 µM (inactive),> 100 µM (inactive),> 100 µM (inactive),> 100 µM (inactive),> 100 µM (inactive),> 100 µM (inactive),> 100 µM (inactive),> 100 µM (inactive),> 100 µM (inactive),> 100 µM (inactive),> 100 µM (inactive),> 100 µM (inactive),> 100 µM (inactive),> 100 µM (inactive),> 100 µM (inactive),> 100 µM (inactive),–,> 100 µM (inactive),24.1 µM (inactive),> 100 µM (inactive)
CCOC(=O)c1sc2c(c1OC(=O)c1ccccc1)c(=O)n(-c1ccccc1)c(=S)n2-c1ccccc1,15.5 µM (inactive),32 µM (inactive),97.9 µM (inactive),> 100 µM (inactive),34.1 µM (inactive),25.1 µM (inactive),36 µM (inactive),19.9 µM (inactive),20.9 µM (inactive),19.3 µM (inactive),19.1 µM (inactive),24.5 µM (inactive),12.4 µM (inactive),68.7 µM (inactive),34.3 µM (inactive),33.7 µM (inactive),43.5 µM (inactive),38.5 µM (inactive),–,40.3 µM (inactive)
O=C1C=Cc2c(Br)sc(Br)c21,> 100 µM (inactive),24.7 µM (inactive),19.6 µM (inactive),34.2 µM (inactive),43.8 µM (inactive),15.2 µM (inactive),23.1 µM (inactive),25.9 µM (inactive),19.1 µM (inactive),32.3 µM (inactive),36.1 µM (inactive),15.8 µM (inactive),–,35.6 µM (inactive),26.5 µM (inactive),19.7 µM (inactive),24.3 µM (inactive),30.5 µM (inactive),90.4 µM (inactive),> 100 µM (inactive)
CN1CCN(Cn2nc(-c3ccccc3)n(/N=C/c3ccc(-c4ccc(Cl)cc4Cl)o3)c2=S)CC1,26 µM (inactive),–,7.36 µM (inactive),–,8.91 µM (inactive),12.8 µM (inactive),4.58 µM (inactive),10.8 µM (inactive),11.4 µM (inactive),5.61 µM (inactive),16 µM (inactive),11.7 µM (inactive),16.3 µM (inactive),15.2 µM (inactive),8.45 µM (inactive),8.43 µM (inactive),4.22 µM (inactive),5.83 µM (inactive),–,–
CCOCCOCCOCc1nc(C#N)c(N)o1,> 100 µM (inactive),> 100 µM (inactive),> 100 µM (inactive),> 100 µM (inactive),> 100 µM (inactive),> 100 µM (inactive),> 100 µM (inactive),> 100 µM (inactive),> 100 µM (inactive),> 100 µM (inactive),> 100 µM (inactive),> 100 µM (inactive),> 100 µM (inactive),> 100 µM (inactive),> 100 µM (inactive),> 100 µM (inactive),> 100 µM (inactive),> 100 µM (inactive),> 100 µM (inactive),–
C/C(=N\C1CCCCC1)c1ccccc1O,> 100 µM (inactive),> 100 µM (inactive),> 100 µM (inactive),> 100 µM (inactive),> 100 µM (inactive),–,56.1 µM (inactive),> 100 µM (inactive),> 100 µM (inactive),> 100 µM (inactive),> 100 µM (inactive),–,> 100 µM (inactive),> 100 µM (inactive),> 100 µM (inactive),> 100 µM (inactive),> 100 µM (inactive),> 100 µM (inactive),57.5 µM (inactive),> 100 µM (inactive)
CCOC(=O)c1[nH]c(Br)c(-c2ccc(OC)c(OC)c2)c1Br,0.0187 µM (active),0.0242 µM (active),–,0.175 µM (active),0.0476 µM (active),0.199 µM (active),0.0679 µM (active),0.028 µM (active),0.0091 µM (active),0.766 µM (active),0.00434 µM (active),0.0163 µM (active),4.82 µM (inactive),5.27 µM (inactive),0.0423 µM (active),0.0356 µM (active),0.00906 µM (active),0.178 µM (active),0.0259 µM (active),0.181 µM (active)
CCN(CC)c1ccc(C2NC(=O)c3ccccc3N2)cc1 (stereo not drawn),4.95 µM (inactive),7.03 µM (inactive),2.82 µM (inactive),1.63 µM (inactive),1.48 µM (inactive),2.19 µM (inactive),0.522 µM (active),2.93 µM (inactive),0.698 µM (active),1.21 µM (inactive),1.85 µM (inactive),2.82 µM (inactive),> 100 µM (inactive),> 22 µM (inactive),3.62 µM (inactive),3.32 µM (inactive),7.52 µM (inactive),8.57 µM (inactive),–,17.1 µM (inactive)
O=C1C=CC2(C=C1)O[C@H](COCc1ccccc1)[C@@H](COCc1ccccc1)O2,19.9 µM (inactive),1.58 µM (inactive),2.24 µM (inactive),1.72 µM (inactive),2.7 µM (inactive),–,2.59 µM (inactive),1.78 µM (inactive),2.27 µM (inactive),18.8 µM (inactive),1.83 µM (inactive),2.37 µM (inactive),2.23 µM (inactive),1.55 µM (inactive),0.305 µM (active),2.13 µM (inactive),0.2 µM (active),1.64 µM (inactive),4.54 µM (inactive),2.92 µM (inactive)
CN1CC2=C(OC(N)=C(C#N)C2c2cccs2)/C(=C/c2cccs2)C1 (stereo not drawn),21.8 µM (inactive),2.43 µM (inactive),38.8 µM (inactive),9.08 µM (inactive),23.4 µM (inactive),25.6 µM (inactive),1.81 µM (inactive),13.1 µM (inactive),6.1 µM (inactive),17.7 µM (inactive),3.41 µM (inactive),15.8 µM (inactive),5.52 µM (inactive),> 84.9 µM (inactive),6.44 µM (inactive),5.31 µM (inactive),10.1 µM (inactive),13.5 µM (inactive),–,> 59.3 µM (inactive)
Nc1cnc(Nc2cccc3ccccc23)o1,> 10 µM (inactive),> 10 µM (inactive),> 10 µM (inactive),> 10 µM (inactive),> 10 µM (inactive),> 10 µM (inactive),> 10 µM (inactive),> 10 µM (inactive),> 10 µM (inactive),> 10 µM (inactive),> 10 µM (inactive),> 10 µM (inactive),> 10 µM (inactive),–,> 10 µM (inactive),> 10 µM (inactive),> 10 µM (inactive),> 10 µM (inactive),> 10 µM (inactive),> 10 µM (inactive)
N#CCOc1ccc(/C=C/C(=O)c2ccc(Cl)cc2)cc1,20.8 µM (inactive),34.8 µM (inactive),–,–,66.4 µM (inactive),31.7 µM (inactive),28.5 µM (inactive),37 µM (inactive),28.8 µM (inactive),27.2 µM (inactive),23.9 µM (inactive),31.8 µM (inactive),34.9 µM (inactive),> 100 µM (inactive),32.1 µM (inactive),43.2 µM (inactive),17.5 µM (inactive),33.9 µM (inactive),19.5 µM (inactive),22.8 µM (inactive)
